Laboratory results as given in US20180251431A1 (VERTEX PHARMACEUTICALS INCORPORATED, priority 2016, published 2018).
Read-outs that look alike come from different tables or passages of the source.

Tested on: HEK293 cells
Assay: HEK293 VLCFA-LPC IC50 determination (13C-labeled C26:0 LPC by UHPLC/MS)
Format: cell-based, human
Settings: Homo sapiens, average of one or more replicates, read-out: Average HEK293 IC50
How it was run: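 Suspension HEK293 cells (final 0.5 million/mL after mixing with equal volume) incubated 48 hours with compound plus 13C-acetate (1.0 mg/mL in added media), shaking at 37° C. Lipids extracted with hexane/isopropanol or methanol, C13:0 LPC standard. UHPLC/MS of 13C-labeled C26:0 LPC (638.500/104.100 m/z); IC50 by four-parameter fit.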

[1] = HEK293, 48 h, 13C-labeled C26:0 LPC, 48 hours

`Cc1ccc(-n2ccc(NC(=O)Cc3ccccc3)n2)cn1` [Compound 117, N-[1-(6-methyl-3-pyridyl)pyrazol-3-yl]-2-phenyl-acetamide] showed an IC50 (HEK293, HEK293 cells) greater than 5000 nM.

Work on `O=C(Cc1cc(F)c(F)c(F)c1)Nc1ccn(-c2ccccc2)n1` [Compound 17, N-(1-phenylpyrazol-3-yl)-2-(3,4,5-trifluorophenyl)acetamide] yielded an IC50 (HEK293, HEK293 cells) greater than 5000 nM.

With `O=C(Nc1ccn(-c2ccccc2)n1)C(c1ccccc1)C1CCCC1` (stereo not drawn) [Compound 167, 2-cyclopentyl-2-phenyl-N-(1-phenylpyrazol-3-yl)acetamide] the IC50 (HEK293, HEK293 cells) was greater than 5000 nM.

`COc1ncc(-n2ccc(NC(=O)C3(c4ncccn4)CC3)n2)cc1F` [Compound 535, N-[1-(5-fluoro-6-methoxy-3-pyridyl)pyrazol-3-yl]-1-pyrimidin-2-yl-cyclopropanecarboxamide] gave an IC50 (HEK293, HEK293 cells) greater than 5000 nM.

`O=C(Nc1ccn(-c2ccccc2)n1)C1(c2cccs2)CC1` [Compound 474, N-(1-phenylpyrazol-3-yl)-1-(2-thienyl)cyclopropanecarboxamide] gave an IC50 (HEK293, HEK293 cells) of 19 nM.

With `O=C(Nc1ccn(-c2ccccc2)n1)C1(c2cccc(F)c2)CC1` [Compound 21, 1-(3-fluorophenyl)-N-(1-phenylpyrazol-3-yl)cyclopropanecarboxamide] the IC50 (HEK293, HEK293 cells) was 150 nM.

`O=C(Cc1ccccn1)Nc1ccn(-c2ccccc2)n1` [Compound 40, N-(1-phenylpyrazol-3-yl)-2-(2-pyridyl)acetamide] gave an IC50 (HEK293, HEK293 cells) of 1500 nM.

Work on `Cc1ccccc1C1(C(=O)Nc2ccn(-c3ccccc3)n2)CC1` [Compound 12, 1-(o-tolyl)-N-(1-phenylpyrazol-3-yl)cyclopropanecarboxamide] yielded an IC50 (HEK293, HEK293 cells) of 130 nM.

In the case of `O=C(Cc1ccccc1)Nc1ccn(-c2cc(F)ncc2F)n1` [Compound 114, N-[1-(2,5-difluoro-4-pyridyl)pyrazol-3-yl]-2-phenyl-acetamide], the IC50 (HEK293, HEK293 cells) is reported as 1200 nM.

For `Cn1ccc(-n2ccc(NC(=O)C3(c4ccccc4F)CC3)n2)n1` [Compound 229, 1-(2-fluorophenyl)-N-[1-(1-methylpyrazol-3-yl)pyrazol-3-yl]cyclopropanecarboxamide], the IC50 (HEK293, HEK293 cells) was 3500 nM.

`O=C(Nc1ccn(-c2cncc(Cl)c2)n1)C1(c2ncccc2F)CC1` [Compound 455, N-[1-(5-chloro-3-pyridyl)pyrazol-3-yl]-1-(3-fluoro-2-pyridyl)cyclopropanecarboxamide] gave an IC50 (HEK293, HEK293 cells) of 100 nM.

`O=C(Nc1ccn(-c2ccccc2)n1)C1(c2ccccc2)CCCCC1` [Compound 142, 1-phenyl-N-(1-phenylpyrazol-3-yl)cyclohexanecarboxamide] was tested, and the IC50 (HEK293, HEK293 cells) was greater than 5000 nM.

Compound `O=C(Nc1ccn(-c2ccnc(F)c2)n1)C1(c2ccc3c(c2)OC(F)(F)O3)CC1` [Compound 285, 1-(2,2-difluoro-1,3-benzodioxol-5-yl)-N-[1-(2-fluoro-4-pyridyl)pyrazol-3-yl]cyclopropanecarboxamide] has an IC50 (HEK293, HEK293 cells) of 40 nM.

`CC1CC1(C(=O)Nc1ccn(-c2cncc(F)c2)n1)c1ncccc1F` (stereo not drawn) [Compound 503, 1-(3-fluoro-2-pyridyI)-N-[1-(5-fluoro-3-pyridyl)pyrazol-3-yl]-2-methyl-cyclopropanecarboxamide] showed an IC50 (HEK293, HEK293 cells) of 110 nM.

In the case of `O=C(Cc1ccsc1)Nc1ccn(-c2ccccc2)n1` [Compound 5, N-(1-phenylpyrazol-3-yl)-2-(3-thienyl)acetamide], the IC50 (HEK293, HEK293 cells) is reported as 410 nM.

`Cc1nccc(-n2ccc(NC(=O)C3(c4ccccc4F)CC3)n2)n1` [Compound 331, 1-(2-fluorophenyl)-N-[1-(2-methylpyrimidin-4-yl)pyrazol-3-yl]cyclopropanecarboxamide] was tested, and the IC50 [1] was greater than 5000 nM.

`N#Cc1cccc(C2(C(=O)Nc3ccn(-c4ccccc4)n3)CC2)c1` [Compound 244, 1-(3-cyanophenyl)-N-(1-phenylpyrazol-3-yl)cyclopropanecarboxamide] showed an IC50 (HEK293, HEK293 cells) of 280 nM.

For `O=C(Nc1ccn(-c2ccccc2F)n1)C1(c2ccccc2F)CC1` [Compound 186, 1-(2-fluorophenyl)-N-(1-(2-fluorophenyl)-1H-pyrazol-3-yl)cyclopropane-1-carboxamide], the IC50 (HEK293, HEK293 cells) was 140 nM.

Compound `O=C(Cc1ccccc1F)Nc1ccn(-c2cncc(F)c2)n1` [Compound 204, 2-(2-fluorophenyl)-N-[1-(5-fluoro-3-pyridyl)pyrazol-3-yl]acetamide] has an IC50 (HEK293, HEK293 cells) of 97 nM.

With `O=C(Nc1ccn(-c2cc(F)ccc2F)n1)C1(c2ccccc2)CC1` [Compound 163, N-[1-(2,5-difluorophenyl)pyrazol-3-yl]-1-phenyl-cyclopropanecarboxamide] the IC50 (HEK293, HEK293 cells) was 4500 nM.

`O=C(Cc1ccccc1)Nc1ccn(-c2ccccn2)n1` [Compound 86, 2-phenyl-N-[1-(2-pyridyl)pyrazol-3-yl]acetamide] showed an IC50 (HEK293, HEK293 cells) of 680 nM.

With `O=C(Nc1ccn(-c2cncnc2)n1)C1(c2ccccc2F)CC1` [Compound 85, 1-(2-fluorophenyl)-N-(1-pyrimidin-5-ylpyrazol-3-yl)cyclopropanecarboxamide] the IC50 (HEK293, HEK293 cells) was 95 nM.

Compound `O=C(Cc1ncccn1)Nc1ccn(-c2ccnc(F)c2)n1` [Compound 221, N-[1-(2-fluoro-4-pyridyl)pyrazol-3-yl]-2-pyrimidin-2-yl-acetamide] has an IC50 (HEK293, HEK293 cells) greater than 5000 nM.

In the case of `O=C(Cn1nccn1)Nc1ccn(-c2ccnc(F)c2)n1` [Compound 299, N-[1-(2-fluoro-4-pyridyl)pyrazol-3-yl]-2-(triazol-2-yl)acetamide], the IC50 (HEK293, HEK293 cells) is reported as 5000 nM.

For `O=C(Nc1ccn(-c2ccc(F)cc2F)n1)C1(c2ccccc2F)CC1` [Compound 448, N-[1-(2,4-difluorophenyl)pyrazol-3-yl]-1-(2-fluorophenyl)cyclopropanecarboxamide], the IC50 (HEK293, HEK293 cells) was 140 nM.

`O=C(Cc1ccccc1)Nc1ccn(-c2ccc(Cl)c(F)c2)n1` [Compound 193, N-[1-(4-chloro-3-fluoro-phenyl)pyrazol-3-yl]-2-phenyl-acetamide] showed an IC50 (HEK293, HEK293 cells) greater than 5000 nM.

`O=C(Nc1ccn(-c2cc(F)cc(F)c2)n1)C1(c2ncccc2F)CC1` [Compound 461, N-[1-(3,5-difluorophenyl)pyrazol-3-yl]-1-(3-fluoro-2-pyridyl)cyclopropanecarboxamide] gave an IC50 (HEK293, HEK293 cells) of 76 nM.

For `Cn1ccc(-n2ccc(NC(=O)C3(c4ccccc4)CC3)n2)n1` [Compound 231, N-[1-(1-methylpyrazol-3-yl)pyrazol-3-yl]-1-phenyl-cyclopropanecarboxamide], the IC50 (HEK293, HEK293 cells) was greater than 5000 nM.

For `O=C(Nc1ccn(-c2ccncc2Cl)n1)C1(c2ccccc2F)CC1` [Compound 333, N-[1-(3-chloro-4-pyridyl)pyrazol-3-yl]-1-(2-fluorophenyl)cyclopropanecarboxamide], the IC50 [1] was 950 nM.

`CC(C)(O)c1ncc(-n2ccc(NC(=O)C3(c4ccccc4F)CC3)n2)cc1F` [Compound 354, N-[1-[5-fluoro-6-(1-hydroxy-1-methyl-ethyl)-3-pyridyl]pyrazol-3-yl]-1-(2-fluorophenyl)cyclopropanecarboxamide] was tested, and the IC50 [1] was greater than 5000 nM.

`O=C(Nc1ccn(-c2ccc(F)cc2)n1)C1(c2ccccc2)CC1` [Compound 184, N-[1-(4-fluorophenyl)pyrazol-3-yl]-1-phenyl-cyclopropanecarboxamide] showed an IC50 (HEK293, HEK293 cells) of 280 nM.

`O=C(Nc1ccn(-c2ccncc2)n1)C1(c2ccccc2)CC1(F)F` (single isomer, unassigned) [Compound 433] was tested, and the IC50 [1] was 320 nM.

In the case of `COc1ccc(-n2ccc(NC(=O)C3(c4ccccc4F)CC3)n2)c(F)c1` [Compound 470], the IC50 (HEK293, HEK293 cells) is reported as greater than 2000 nM.

`O=C(Cn1cccc1)Nc1ccn(-c2ccccc2)n1` [Compound 297, N-(1-phenylpyrazol-3-yl)-2-pyrrol-1-yl-acetamide] showed an IC50 (HEK293, HEK293 cells) of 1800 nM.

With `O=C(Nc1ccn(-c2cccc(F)c2)n1)C1(c2ccccc2F)CC1` [Compound 124, 1-(2-fluorophenyl)-N-[1-(3-fluorophenyl)pyrazol-3-yl]cyclopropanecarboxamide] the IC50 (HEK293, HEK293 cells) was 41 nM.

Compound `Cn1cnc(-n2ccc(NC(=O)C3(c4ccccc4F)CC3)n2)c1` [Compound 392, 1-(2-fluorophenyl)-N-(1-(1-methyl-1H-imidazol-4-yl)-1H-pyrazol-3-yl)cyclopropane-1-carboxamide] has an IC50 (HEK293, HEK293 cells) greater than 5000 nM.

With `Cn1cncc1-n1ccc(NC(=O)C2(c3ccccc3F)CC2)n1` [Compound 426, 1-(2-fluorophenyl)-N-[1-(3-methylimidazol-4-yl)pyrazol-3-yl]cyclopropanecarboxamide] the IC50 (HEK293, HEK293 cells) was greater than 2000 nM.

Compound `O=C(Cc1ccccc1F)Nc1ccn(-c2ccccn2)n1` [Compound 211, 2-(2-fluorophenyl)-N-[1-(2-pyridyl)pyrazol-3-yl]acetamide] has an IC50 (HEK293, HEK293 cells) of 1700 nM.

`O=C(Nc1ccn(-c2cncc(F)c2)n1)C1(c2ncc(Cl)cc2F)CC1` [Compound 498, 1-(5-chloro-3-fluoropyridin-2-yl)-N-(1-(5-fluoropyridin-3-yl)-1H-pyrazol-3-yl)cyclopropane-1-carboxamide] gave an IC50 (HEK293, HEK293 cells) of 470 nM.

For `CC1(C)CC1(C(=O)Nc1ccn(-c2cncc(F)c2)n1)c1ncccc1F` (stereo not drawn) [Compound 511, 1-(3-fluoro-2-pyridyl)-N-[1-(5-fluoro-3-pyridyl)pyrazol-3-yl]-2,2-dimethyl-cyclopropanecarboxamide], the IC50 (HEK293, HEK293 cells) was 310 nM.

Work on `O=C(Nc1ccn(-c2ccnc(C(F)F)c2)n1)C1(c2ccccc2F)CC1` [Compound 396, N-[1-[2-(difluoromethyl)-4-pyridyl]pyrazol-3-yl]-1-(2-fluorophenyl)cyclopropanecarboxamide] yielded an IC50 (HEK293, HEK293 cells) greater than 5000 nM.

With `O=C(Nc1ccn(-c2ccnc(F)c2)n1)C1(c2ccccn2)CC1` [Compound 223, N-[1-(2-fluoro-4-pyridyl)pyrazol-3-yl]-1-(2-pyridyl)cyclopropanecarboxamide] the IC50 (HEK293, HEK293 cells) was 70 nM.

In the case of `O=C(Nc1ccn(-c2ccccc2)n1)C1(c2ccccc2)CC1CO` (stereo not drawn) [Compound 444, 2-(hydroxymethyl)-1-phenyl-N-(1-phenyl-1H-pyrazol-3-yl)cyclopropane-1-carboxamide], the IC50 [1] is reported as 260 nM.

`O=C(Nc1ccn(-c2ccc(Cl)c(F)c2)n1)C1(c2ccccc2F)CC1` [Compound 194, N-[1-(4-chloro-3-fluoro-phenyl)pyrazol-3-yl]-1-(2-fluorophenyl)cyclopropanecarboxamide] showed an IC50 (HEK293, HEK293 cells) greater than 5000 nM.

For `CCC(C)(C(=O)Nc1ccn(-c2ccnc(F)c2)n1)c1ccccc1` (stereo not drawn) [Compound 294, N-[1-(2-fluoro-4-pyridyl)pyrazol-3-yl]-2-methyl-2-phenyl-butanamide], the IC50 (HEK293, HEK293 cells) was 390 nM.
